Data published in US10632195B2, “Pharmaceutical device for electric-field assisted administration of Tapentadol and method of administering Tapentadol with same” (Gruenenthal GmbH, priority 2012, dated 2020).
“And” between values parts separate entries of the source, which are not always exact repeats. Identical values can stand only once. Counter-ions that a name gives are not always drawn.

Assay: iontophoretic transdermal delivery of Tapentadol hydrochloride, 24 hours of iontophoresis (example 1b), side-bi-side diffusion cells, constant current 0.25 mA (0.4 mA/cm2), donor 100 mM in water
Format: in vitro ADME, pig
Details: for drug flux across the skin, Mean ± SD / drug flux across the skin, as tapentadol base, Mean ± SD / cumulative, iontophoretic delivery across the skin, Mean ± SD / cumulative, iontophoretic delivery across the skin, as tapentadol base, Mean ± SD: n=6; for drug flux across the skin, Mean ± SD / drug flux across the skin, as tapentadol base, Mean ± SD / cumulative, iontophoretic delivery across the skin, Mean ± SD / cumulative, iontophoretic delivery across the skin, as tapentadol base, Mean ± SD / drug flux across the skin / cumulative, iontophoretic delivery across the skin: patch area 0.64 cm^2; for drug flux across the skin / cumulative, iontophoretic delivery across the skin: single cells 1-6, hydrochloride; for cumulative, iontophoretic delivery across the skin: listed as Tapentadol HCl
Procedure: Determination of the rate of iontophoretic transdermal delivery of Tapentadol hydrochloride for a period of 24 hours of iontophoresis
Tapentadol hydrochloride (batch no. A0012) was employed. The components of the phosphate buffered saline (PBS) and the mobile phase used were from Sigma, UK. The pig skin was obtained from a local farm, washed with water, excess hair was carefully trimmed with scissors, and the skin was dermatomed using a Zimmer dermatome set at a nominal thickness of 750 μm. The skin was then stored at −20° C.
The drug was delivered from the anode, using side-bi-side (horizontal) glass diffusion cells (n=6) supplied by Permegear, USA. The porcine skin membrane was excised from the dorsal surface.
Electrodes were prepared in-house and were made of silver/silver chloride. To pass current for 24 hours in this set-up, it was necessary for the donor compartment to contain 76 mM chloride ions.
The anode was placed in the donor chamber; the donor solution was 3 ml of Tapentadol hydrochloride (100 mM, i.e. 25.78 mg/ml of Tapentadol hydrochloride, 22.13 mg/ml of base) in water. The cathode was placed in the receptor chamber, which contained 3 ml of phosphate-buffered saline, pH 7.4. Both chambers were stirred by magnets.
Current was applied for a total of 8 or 24 hours, respectively.
The receptor solution was sampled and assayed at 0.5, 1, 2, 3, 4, 5, 6, 7, 8 (example 1a) and optionally 24 hours (example 1b) post-initiation of the current. During the 8 hour experiment (example 1a), at 0.5, 1, 2, and 3 hours, 1 ml of receptor solution was removed and replaced with fresh PBS. As it was clear that the amount of Tapentadol in the receptor solution was sufficient for quantitation by HPLC, at the subsequent sampling times of 4, 5, 6, 7 and 8 hours, the entire receptor solution (3 ml) was removed and replaced with fresh PBS, to ensure sink conditions in the receptor. During the 24 hour experiment (example 1b), the entire receptor solution (3 ml) was removed and replaced with fresh PBS at every sampling point.
The concentrations of Tapentadol hydrochloride in the receptor chamber samples were determined by HPLC. A mobile phase consisting of 300:700:1 methanol:water:phosphoric acid was pumped (1 ml/min) through a Acclaim RP-18 (4×150 mm) reverse-phase column (Dionex, UK) at 35° C. Tapentadol concentrations were quantified via their UV absorbance at 215 nm using a calibration curve diluted in PBS at pH 7.4. Injection volume was 20 μl and the retention time for Tapentadol hydrochloride was 12 minutes and the total run time was 16 minutes.
A Tapentadol-free “blank” diffusion cell (donor was saline only) was also prepared and the receptor solution was analysed after 8 hours to confirm no peaks from any component of the skin co-eluted with the Tapentadol hydrochloride.
Voltages were as expected for 6 cells in series (range was 6 to 28 volts). The pH of the donor solution was measured after termination of 24 hours of iontophoresis, and ranged from 6.47 to 6.99. The pH of drug in the donor prior to commencing the experiment was 5.07 (5.34 for the 8 hour iontophoresis).

[1] = 24 hours iontophoresis, as tapentadol hydrochloride

CC[C@@H](c1cccc(O)c1)[C@@H](C)CN(C)C [Tapentadol hydrochloride]
drug flux across the skin, Mean ± SD (0.5 h, iontophoresis): 3 ± 2 µg/h
drug flux across the skin, as tapentadol base, Mean ± SD (0.5 h, iontophoresis): 3 ± 2 µg/h
cumulative, iontophoretic delivery across the skin, Mean ± SD (0.5 h): 2 ± 1 µg
cumulative, iontophoretic delivery across the skin, as tapentadol base, Mean ± SD (0.5 h): 1 ± 1 µg
drug flux across the skin, Mean ± SD (1 h, iontophoresis): 48 ± 22 µg/h
drug flux across the skin, as tapentadol base, Mean ± SD (1 h, iontophoresis): 41 ± 19 µg/h
cumulative, iontophoretic delivery across the skin, Mean ± SD (1 h): 26 ± 12 µg
cumulative, iontophoretic delivery across the skin, as tapentadol base, Mean ± SD (1 h): 22 ± 10 µg
drug flux across the skin, Mean ± SD (1.5 h, iontophoresis): 96 ± 22 µg/h
drug flux across the skin, as tapentadol base, Mean ± SD (1.5 h, iontophoresis): 82 ± 19 µg/h
cumulative, iontophoretic delivery across the skin, Mean ± SD (1.5 h): 74 ± 22 µg
cumulative, iontophoretic delivery across the skin, as tapentadol base, Mean ± SD (1.5 h): 63 ± 19 µg
drug flux across the skin, Mean ± SD (2 h, iontophoresis): 144 ± 38 µg/h
drug flux across the skin, as tapentadol base, Mean ± SD (2 h, iontophoresis): 124 ± 33 µg/h
cumulative, iontophoretic delivery across the skin, Mean ± SD (2 h): 146 ± 41 µg
cumulative, iontophoretic delivery across the skin, as tapentadol base, Mean ± SD (2 h): 125 ± 35 µg
drug flux across the skin, Mean ± SD (3 h, iontophoresis): 176 ± 32 µg/h
drug flux across the skin, as tapentadol base, Mean ± SD (3 h, iontophoresis): 151 ± 28 µg/h
drug flux across the skin (3 h, iontophoresis): 128 µg/h and 147 µg/h and 203 µg/h and 208 µg/h and 181 µg/h and 190 µg/h
cumulative, iontophoretic delivery across the skin, Mean ± SD (3 h): 322 ± 72 µg
cumulative, iontophoretic delivery across the skin, as tapentadol base, Mean ± SD (3 h): 276 ± 61 µg
cumulative, iontophoretic delivery across the skin (3 h): 224 µg and 259 µg and 364 µg and 419 µg and 315 µg and 348 µg
drug flux across the skin, Mean ± SD (4 h, iontophoresis): 232 ± 27 µg/h
drug flux across the skin, as tapentadol base, Mean ± SD (4 h, iontophoresis): 199 ± 23 µg/h
drug flux across the skin (4 h, iontophoresis): 184 µg/h and 217 µg/h and 238 µg/h and 257 µg/h and 248 µg/h
cumulative, iontophoretic delivery across the skin, Mean ± SD (4 h): 554 ± 96 µg
cumulative, iontophoretic delivery across the skin, as tapentadol base, Mean ± SD (4 h): 475 ± 83 µg
cumulative, iontophoretic delivery across the skin (4 h): 408 µg and 476 µg and 602 µg and 676 µg and 563 µg and 596 µg
drug flux across the skin, Mean ± SD (5 h, iontophoresis): 270 ± 22 µg/h
drug flux across the skin, as tapentadol base, Mean ± SD (5 h, iontophoresis): 232 ± 19 µg/h
drug flux across the skin (5 h, iontophoresis): 227 µg/h and 271 µg/h and 283 µg/h and 285 µg/h and 284 µg/h and 272 µg/h
cumulative, iontophoretic delivery across the skin, Mean ± SD (5 h): 824 ± 116 µg
cumulative, iontophoretic delivery across the skin, as tapentadol base, Mean ± SD (5 h): 707 ± 99 µg
cumulative, iontophoretic delivery across the skin (5 h): 635 µg and 747 µg and 885 µg and 962 µg and 847 µg and 867 µg
drug flux across the skin, Mean ± SD (6 h, iontophoresis): 277 ± 18 µg/h
drug flux across the skin, as tapentadol base, Mean ± SD (6 h, iontophoresis): 238 ± 16 µg/h
drug flux across the skin (6 h, iontophoresis): 243 µg/h and 282 µg/h and 298 µg/h and 277 µg/h and 286 µg/h and 274 µg/h
cumulative, iontophoretic delivery across the skin, Mean ± SD (6 h): 1101 ± 129 µg
cumulative, iontophoretic delivery across the skin, as tapentadol base, Mean ± SD (6 h): 945 ± 111 µg
cumulative, iontophoretic delivery across the skin (6 h): 878 µg and 1029 µg and 1183 µg and 1239 µg and 1133 µg and 1142 µg
drug flux across the skin, Mean ± SD (7 h, iontophoresis): 282 ± 18 µg/h
drug flux across the skin, as tapentadol base, Mean ± SD (7 h, iontophoresis): 242 ± 15 µg/h
drug flux across the skin (7 h, iontophoresis): 248 µg/h and 292 µg/h and 282 µg/h and 295 µg/h
cumulative, iontophoretic delivery across the skin, Mean ± SD (7 h): 1382 ± 144 µg
cumulative, iontophoretic delivery across the skin, as tapentadol base, Mean ± SD (7 h): 1187 ± 123 µg
cumulative, iontophoretic delivery across the skin (7 h): 1125 µg and 1322 µg and 1465 µg and 1534 µg and 1425 µg and 1424 µg
drug flux across the skin, Mean ± SD (8 h, iontophoresis): 288 ± 30 µg/h
drug flux across the skin, as tapentadol base, Mean ± SD (8 h, iontophoresis): 247 ± 26 µg/h
drug flux across the skin (8 h, iontophoresis): 254 µg/h and 331 µg/h and 256 µg/h and 302 µg/h and 282 µg/h
cumulative, iontophoretic delivery across the skin, Mean ± SD (8 h): 1671 ± 155 µg
cumulative, iontophoretic delivery across the skin, as tapentadol base, Mean ± SD (8 h): 1434 ± 133 µg
cumulative, iontophoretic delivery across the skin (8 h): 1380 µg and 1653 µg and 1721 µg and 1836 µg and 1727 µg and 1706 µg
drug flux across the skin, Mean ± SD (24 h, iontophoresis): 309 ± 26 µg/h
drug flux across the skin, as tapentadol base, Mean ± SD (24 h, iontophoresis): 265 ± 23 µg/h
drug flux across the skin (24 h, iontophoresis): 300 µg/h and 342 µg/h and 330 µg/h and 323 µg/h and 282 µg/h and 277 µg/h
cumulative, iontophoretic delivery across the skin, Mean ± SD (24 h): 6616 ± 468 µg
cumulative, iontophoretic delivery across the skin, as tapentadol base, Mean ± SD (24 h): 5680 ± 402 µg
cumulative, iontophoretic delivery across the skin (24 h): 6185 µg and 7120 µg and 7001 µg and 7000 µg and 6247 µg and 6145 µg
cumulative amount delivered across a 0.64 cm2 area of skin, as tapentadol base (24 hours iontophoresis): 5.7 mg
cumulative amount delivered per 1 cm2, as tapentadol base (24 hours iontophoresis): 8.9 mg
cumulative amount delivered across a 0.64 cm2 area of skin [1]: 6.6 mg
cumulative amount delivered per 1 cm2 [1]: 10.3 mg
time by which steady-state flux appears to have been reached (example 1b, iontophoresis): 5 to 6 h
difference between flux during iontophoresis and flux due to passive diffusion (iontophoresis vs comparative example 1b): 30 fold
